Data published in ChEMBL document CHEMBL3885881, “DrugMatrix”.

Organism: Rattus norvegicus
Assay: DrugMatrix - Regimen: Daily Repeat
Assay type: toxicity, organism-based, Sprague-Dawley
Set-up: regimen Daily Repeat, gender Male, age 6-8 weeks
Details: in vivo, sc, route subcutaneous, […]; for ABSOLUTE BASOPHIL / ABSOLUTE EOSINOPHIL / ABSOLUTE LYMPHOCYTE / ABSOLUTE MONOCYTE / ABSOLUTE SEGMENTED NEUTROPHIL / BASOPHIL / EOSINOPHIL / ERYTHROCYTE COUNT / HEMATOCRIT / HEMOGLOBIN / LEUKOCYTE COUNT / LYMPHOCYTE / MEAN CORPUSCULAR HEMOGLOBIN / MEAN CORPUSCULAR VOLUME / MONOCYTE / NEUTROPHIL / NUCLEATED RED BLOOD CELLS / PLATELET COUNT: tissue Blood; for ALANINE AMINOTRANSFERASE / ALBUMIN / ALKALINE PHOSPHATASE / ASPARTATE AMINOTRANSFERASE / BLOOD UREA NITROGEN / CARBON DIOXIDE / CHLORIDE / CHOLESTEROL / CREATINE PHOSPHOKINASE / CREATININE / GLUCOSE / LACTATE DEHYDROGENASE / LIPASE / PHOSPHORUS / POTASSIUM / SODIUM / TOTAL BILIRUBIN / TOTAL PROTEIN / URIC ACID: tissue Plasma
[1] = 0 mg/kg, 72 h, dose level Control, time 3 day
[2] = 0 mg/kg, 120 h, dose level Control, time 5 day
[3] = 50 mg/kg, 72 h, dose level Low, time 3 day

CCCCCCCCc1ccc(O)cc1 [4-OCTYLPHENOL]
ABSOLUTE BASOPHIL [1]: 0 CELLS/uL
ABSOLUTE EOSINOPHIL [1]: 0 CELLS/uL
ABSOLUTE LYMPHOCYTE [1]: 9782.33 CELLS/uL
ABSOLUTE MONOCYTE [1]: 114.67 CELLS/uL
ABSOLUTE SEGMENTED NEUTROPHIL [1]: 753 CELLS/uL
BASOPHIL [1]: 0%
EOSINOPHIL [1]: 0%
ERYTHROCYTE COUNT [1]: 5.14 x10E6/uL
HEMATOCRIT [1]: 32.12%
HEMOGLOBIN [1]: 13.13 G/DL
LEUKOCYTE COUNT [1]: 10.65 x10E3/uL
LYMPHOCYTE [1]: 91.83%
MEAN CORPUSCULAR HEMOGLOBIN [1]: 25.83 pg
MEAN CORPUSCULAR VOLUME [1]: 62.43 fL
MONOCYTE [1]: 1%
NEUTROPHIL [1]: 7.17%
NUCLEATED RED BLOOD CELLS [1]: 0.17 /100WBC
PLATELET COUNT [1]: 657.83 x10E3/uL
ALANINE AMINOTRANSFERASE [1]: 60.33 u/L
ALBUMIN [1]: 3.83 G/DL
ALKALINE PHOSPHATASE [1]: 366.33 u/L
ASPARTATE AMINOTRANSFERASE [1]: 104.5 u/L
BLOOD UREA NITROGEN [1]: 12.33 mg/dL
CARBON DIOXIDE [1]: 23.17 mmol/L
CHLORIDE [1]: 96.67 MEQ/L
CHOLESTEROL [1]: 73.17 mg/dL
CREATINE PHOSPHOKINASE [1]: 545.83 u/L
CREATININE [1]: 0.26 mg/dL
GLUCOSE [1]: 144.33 mg/dL
LACTATE DEHYDROGENASE [1]: 147.5 u/L
LIPASE [1]: 9.33 u/L
PHOSPHORUS [1]: 10.83 mg/dL
POTASSIUM [1]: 5.68 MEQ/L
SODIUM [1]: 138.83 MEQ/L
TOTAL BILIRUBIN [1]: 0.17 mg/dL
TOTAL PROTEIN [1]: 5.42 G/DL
URIC ACID [1]: 0.65 mg/dL
ABSOLUTE BASOPHIL [2]: 0 CELLS/uL
ABSOLUTE EOSINOPHIL [2]: 43.33 CELLS/uL
ABSOLUTE LYMPHOCYTE [2]: 12883 CELLS/uL
ABSOLUTE MONOCYTE [2]: 166.83 CELLS/uL
ABSOLUTE SEGMENTED NEUTROPHIL [2]: 1290.17 CELLS/uL
BASOPHIL [2]: 0%
EOSINOPHIL [2]: 0.33%
ERYTHROCYTE COUNT [2]: 5.79 x10E6/uL
HEMATOCRIT [2]: 36.37%
HEMOGLOBIN [2]: 14.17 G/DL
LEUKOCYTE COUNT [2]: 14.38 x10E3/uL
LYMPHOCYTE [2]: 89.17%
MEAN CORPUSCULAR HEMOGLOBIN [2]: 24.48 pg
MEAN CORPUSCULAR VOLUME [2]: 62.83 fL
MONOCYTE [2]: 1.17%
NEUTROPHIL [2]: 9.33%
NUCLEATED RED BLOOD CELLS [2]: 0.5 /100WBC
PLATELET COUNT [2]: 1267.33 x10E3/uL
ALANINE AMINOTRANSFERASE [2]: 53.5 u/L
ALBUMIN [2]: 3.82 G/DL
ALKALINE PHOSPHATASE [2]: 342.33 u/L
ASPARTATE AMINOTRANSFERASE [2]: 83.67 u/L
BLOOD UREA NITROGEN [2]: 13.17 mg/dL
CARBON DIOXIDE [2]: 28.17 mmol/L
CHLORIDE [2]: 101.5 MEQ/L
CHOLESTEROL [2]: 70.83 mg/dL
CREATINE PHOSPHOKINASE [2]: 656.67 u/L
CREATININE [2]: 0.17 mg/dL
GLUCOSE [2]: 171.33 mg/dL
LACTATE DEHYDROGENASE [2]: 169 u/L
LIPASE [2]: 9.17 u/L
PHOSPHORUS [2]: 12.88 mg/dL
POTASSIUM [2]: 6.54 MEQ/L
SODIUM [2]: 141.2 MEQ/L
TOTAL BILIRUBIN [2]: 0.18 mg/dL
TOTAL PROTEIN [2]: 5.68 G/DL
URIC ACID [2]: 2.02 mg/dL
ABSOLUTE BASOPHIL [3]: 0 CELLS/uL
ABSOLUTE EOSINOPHIL [3]: 58 CELLS/uL
ABSOLUTE LYMPHOCYTE [3]: 8002.33 CELLS/uL
ABSOLUTE MONOCYTE [3]: 124.67 CELLS/uL
ABSOLUTE SEGMENTED NEUTROPHIL [3]: 648.33 CELLS/uL
BASOPHIL [3]: 0%
EOSINOPHIL [3]: 0.67%
ERYTHROCYTE COUNT [3]: 5.33 x10E6/uL
HEMATOCRIT [3]: 34.07%
HEMOGLOBIN [3]: 13.23 G/DL
LEUKOCYTE COUNT [3]: 8.83 x10E3/uL
LYMPHOCYTE [3]: 90%
MEAN CORPUSCULAR HEMOGLOBIN [3]: 24.83 pg
MEAN CORPUSCULAR VOLUME [3]: 63.87 fL
MONOCYTE [3]: 1.67%
NEUTROPHIL [3]: 7.67%
NUCLEATED RED BLOOD CELLS [3]: 0 /100WBC
PLATELET COUNT [3]: 876 x10E3/uL
ALANINE AMINOTRANSFERASE [3]: 50.33 u/L
ALBUMIN [3]: 3.9 G/DL
ALKALINE PHOSPHATASE [3]: 340 u/L
ASPARTATE AMINOTRANSFERASE [3]: 88 u/L
BLOOD UREA NITROGEN [3]: 10 mg/dL
CARBON DIOXIDE [3]: 24.67 mmol/L
CHLORIDE [3]: 94 MEQ/L
CHOLESTEROL [3]: 67.33 mg/dL
CREATINE PHOSPHOKINASE [3]: 672.33 u/L
CREATININE [3]: 0.22 mg/dL
GLUCOSE [3]: 130.67 mg/dL
LACTATE DEHYDROGENASE [3]: 143.33 u/L
LIPASE [3]: 9.67 u/L
PHOSPHORUS [3]: 11.07 mg/dL
POTASSIUM [3]: 6.18 MEQ/L
SODIUM [3]: 136.97 MEQ/L
TOTAL BILIRUBIN [3]: 0.1 mg/dL
TOTAL PROTEIN [3]: 5.4 G/DL
URIC ACID [3]: 0.83 mg/dL
